Laboratory results as given in patent US20240245673A1, “Papain-like protease (PLpro) inhibitors” (Pfizer Inc., priority 2022, published 2024).

biological target: SARS-CoV-2 Papain like protease (PLpro) (Severe acute respiratory syndrome coronavirus 2 (2019-nCoV) (SARS-CoV-2), UniProt P0DTD1); experiment: Papain Like Protease (PLpro) biochemical assay with profluorogenic substrate Z-RLRGG-AMC; settings: IC50 (μM), SARS-CoV-2 PLpro 6.25 nM, 25 μM Z-RLRGG-AMC substrate, 60 minute reaction

Point of comparison: `Cc1cnc(N2CC3CCC(C2)N3C)cc1C(=O)NC1(c2cc(-c3cnn(C)c3)nc3ccccc23)CC1` [Example 287, 5-methyl-N-(1-(2-(1-methyl-1H-pyrazol-4-yl)quinolin-4-yl)cyclopropyl)-2-(8-methyl-3,8-diazabicyclo[3.2.1]octan-3-yl)isonicotinamide], IC50 0.002 µM. Against it:
- Cc1ccc(N2CCNCC2)cc1C(=O)NC1(c2cc(-c3cnn(C)c3)cc3ccccc23)CC1 [Example 230, 2-methyl-N-(1-(3-(1-methyl-1H-pyrazol-4-yl)naphthalen-1-yl)cyclopropyl)-5-(piperazin-1-yl)benzamide] — 1.5-fold higher, 0.003 µM

same assay, conditions: SARS-CoV-2 PLpro 6.25 nM, 25 μM Z-RLRGG-AMC substrate, 60 minute reaction; read-out: IC50

Point of comparison: `Cc1ccccc1C(=O)NC(C)c1cc(-c2scc3c2OCCO3)nc2ccccc12` (stereo not shown) [Example 104, N-{1-[2-(2,3-dihydrothieno [3,4-b][1,4]dioxin-5-yl)quinolin-4-yl]ethyl}-2-methylbenzamide], IC50 10 µM. Against it:
- Cc1cc(C(=O)NC(C)c2cscn2)ccc1C(=O)N[C@H](C)c1cc(-c2cnn(C)c2)nc2ccccc12 (stereo partly shown) [Example 202] — 830-fold lower, 0.012 µM
- C[C@@H](NC(=O)c1ccccc1CCC(=O)NNC(=O)/C=C/C(N)=O)c1cc(-c2cnn(C)c2)nc2ccccc12 [Example 224, (R,E)-2-(3-(2-(4-amino-4-oxobut-2-enoyl)hydrazineyl)-3-oxopropyl)-N-(1-(2-(1-methyl-1H-pyrazol-4-yl)quinolin-4-yl)ethyl)benzamide] — 1700-fold lower, 0.006 µM
- Cc1ccccc1C(=O)NC(C)c1cc(-c2cc(C(C)C)no2)nc2ccccc12 (stereo not shown) [Example 124, 2-methyl-N-(1-{2-[3-(propan-2-yl)-1,2-oxazol-5-yl]quinolin-4-yl}ethyl)benzamide] — 16-fold lower, 0.635 µM
- Cc1ccccc1C(=O)NC(C)c1cc(CN)nc2ccccc12 (stereo in doubt) [Example 158, N-{(1R)-1-[2-(aminomethyl)quinolin-4-yl]-ethyl}-2-methylbenzamide] — 1.8-fold lower, 5.48 µM
- Cc1ccccc1C(=O)NC(C)c1cc(-c2ccc3oc(=O)[nH]c3c2)nc2ccccc12 (stereo not shown) [Example 116, 2-methyl-N-{1-[2-(2-oxo-2,3-dihydro-1,3-benzoxazol-5-yl)quinolin-4-yl]ethyl} benzamide] — 25-fold lower, 0.406 µM
- CNCc1ccc(C)c(C(=O)N[C@H](C)c2cc(-c3cnn(C)c3)nc3ccccc23)c1 [Example 13, (R)-2-methyl-N-(1-(2-(1-methyl-1H-pyrazol-4-yl)quinolin-4-yl)ethyl)-5-((methylamino)methyl)benzamide] — 420-fold lower, 0.024 µM
- Cc1cc(COCc2cscn2)ccc1C(=O)NC1(c2cc(-c3cnn(CCS(C)(=O)=O)c3)nc3ccccc23)CC1 [Example 328, 2-methyl-N-(1-(2-(1-(2-(methylsulfonyl)ethyl)-1H-pyrazol-4-yl)quinolin-4-yl)cyclopropyl)-4-((thiazol-4-ylmethoxy)methyl)benzamide] — lower, < 0.001 µM
- Cc1ccc(NC(=O)[C@H]2CCCCN2)cc1C(=O)N[C@H](C)c1cc(-c2cnn(C)c2)nc2ccccc12 [Example 14, (R)-N-(4-methyl-3-(((R)-1-(2-(1-methyl-1H-pyrazol-4-yl)quinolin-4-yl)ethyl)carbamoyl)phenyl)piperidine-2-carboxamide] — 530-fold lower, 0.019 µM
- Cc1ccccc1C(=O)NC(C)c1cc(N2CCC(S(=O)(=O)N(C)C)CC2)nc2ccccc12 (stereo not shown) [Example 151, N-(1-{2-[4-(dimethylsulfamoyl)piperidin-1-yl]quinolin-4-yl}ethyl)-2-methylbenzamide] — 6.8-fold lower, 1.46 µM
- Cc1cc(C[S+]([O-])Cc2nccn2C)ccc1C(=O)N[C@H](C)c1cc(-c2cnn(C)c2)nc2ccccc12 (stereo partly drawn) [Example 283, 2-methyl-4-((((1-methyl-1H-imidazol-2-yl)methyl)sulfinyl)methyl)-N—((R)-1-(2-(1-methyl-1H-pyrazol-4-yl)quinolin-4-yl)ethyl)benzamide] — 2000-fold lower, 0.005 µM
- COc1c(-c2cnn(C)c2)cc(C(C)NC(=O)c2cc(CN)ccc2C)c2ccccc12 (stereo not shown) [Example 205] — 230-fold lower, 0.043 µM
- Cc1cc(COCc2nccn2C)ccc1C(=O)N[C@H](C)c1cc(-c2cnn(C)c2)nc2ccccc12 [Example 291, (R)-2-methyl-4-(((1-methyl-1H-imidazol-2-yl)methoxy)methyl)-N-(1-(2-(1-methyl-1H-pyrazol-4-yl)quinolin-4-yl)ethyl)benzamide] — 10000-fold lower, 0.001 µM
- Cc1ccc(N2CCC3(CCCCN3)C2=O)cc1C(=O)N[C@H](C)c1cc(-c2cnn(C)c2)nc2ccccc12 (stereo partly shown) [Example 240] — 380-fold lower, 0.026 µM
- Cc1cc(C2(NC(=O)c3ncc[nH]3)CC2)ccc1C(=O)N[C@H](C)c1cc(-c2cnn(C)c2)nc2ccccc12 [Example 213, (R)-N-(1-(3-methyl-4-((1-(2-(1-methyl-1H-pyrazol-4-yl)quinolin-4-yl)ethyl)carbamoyl)phenyl)cyclopropyl)-1H-imidazole-2-carboxamide] — 46-fold lower, 0.219 µM
- Cc1cc(C(=O)NCc2ncoc2C)ccc1C(=O)N[C@H](C)c1cc(-c2cnn(C)c2)nc2ccccc12 [Example 317, (R)-2-methyl-N1-(1-(2-(1-methyl-1H-pyrazol-4-yl)quinolin-4-yl)ethyl)-N4-((5-methyloxazol-4-yl)methyl)terephthalamide] — 1700-fold lower, 0.006 µM
- CNCc1ccc(C)c(C(=O)N[C@H](C)c2cc(-c3cc(C(=O)OC)c[nH]3)nc3ccccc23)c1 [Example 57, methyl (R)-5-(4-(1-(2-methyl-5-((methylamino)methyl)benzamido)ethyl)quinolin-2-yl)-1H-pyrrole-3-carboxylate] — 770-fold lower, 0.013 µM
- Cc1ccc(N2CCNCC2=O)cc1C(=O)N[C@H](C)c1cc(-c2cnn(C)c2)nc2ccccc12 [Example 248] — 26-fold lower, 0.39 µM
- Cc1cc(CC(=O)Nc2cscn2)ccc1C(=O)NC1(c2cc(-c3cnn(C)c3)nc3ccccc23)CC1 [Example 313, 2-methyl-N-(1-(2-(1-methyl-1H-pyrazol-4-yl)quinolin-4-yl)cyclopropyl)-4-(2-oxo-2-(thiazol-4-ylamino)ethyl)benzamide] — 2500-fold lower, 0.004 µM
- Cc1ccccc1C(=O)NC(C)c1cc(-c2cc(C3CC3)nn2C)nc2ccccc12 (stereo not shown) [Example 107, N-{1-[2-(3-cyclopropyl-1-methyl-1H-pyrazol-5-yl)quinolin-4-yl]ethyl}-2-methylbenzamide] — 13-fold lower, 0.757 µM
- Cc1cc(COCc2cocn2)ccc1C(=O)NC1(c2cc(-c3cc(C(=O)N(C)C)n[nH]3)nc3ccccc23)CC1 [Example 346, N,N-dimethyl-5-(4-(1-(2-methyl-4-((oxazol-4-ylmethoxy)methyl)benzamido)cyclopropyl)quinolin-2-yl)-1H-pyrazole-3-carboxamide] — lower, < 0.001 µM
- COC(=O)c1cc(-c2cc([C@@H](C)NC(=O)c3cc(CN)ccc3C)c3ccccc3n2)n(C)c1 [Example 263, methyl(R)-5-(4-(1-(5-(aminomethyl)-2-methylbenzamido)ethyl)quinolin-2-yl)-1-methyl-1H-pyrrole-3-carboxylate] — 43-fold lower, 0.231 µM
- Cc1ccccc1C(=O)N[C@H](C)c1cc(OC2CCOC2)nc2ccccc12 (stereo partly drawn) [Example 46, 2-methyl-N-((1R)-1-(2-((tetrahydrofuran-3-yl)oxy)quinolin-4-yl)ethyl)benzamide] — 2.8-fold lower, 3.62 µM
- Cc1ccc(CN)cc1C(=O)NC(C)c1cc(-n2cc(C(F)(F)F)nn2)nc2ccccc12 (stereo not shown) [Example 31, 5-(aminomethyl)-2-methyl-N-(1-(2-(4-(trifluoromethyl)-1H-1,2,3-triazol-1-yl)quinolin-4-yl)ethyl)benzamide] — 15-fold lower, 0.674 µM
- Cc1ccc(C(N)=O)cc1C(=O)NC(C)c1cc(-n2nccn2)cc2ccccc12 (stereo not shown) [Example 2, N^1-(1-(3-(2H-1,2,3-triazol-2-yl)naphthalen-1-yl)ethyl)-6-methylisophthalamide] — 7.3-fold lower, 1.37 µM
- Cc1ccccc1C(=O)NC(C)c1cc(-c2cn(C)nc2C(F)(F)F)nc2ccccc12 (stereo not shown) [Example 132, 2-methyl-N-(1-{2-[1-methyl-3-(trifluoromethyl)-1H-pyrazol-4-yl]quinolin-4-yl}ethyl) benzamide] — 12-fold lower, 0.844 µM
- Cc1ccc(CN)cc1C(=O)N[C@H](C)c1cc(-n2cncn2)nc2ccccc12 [Example 24, (R)-N-(1-(2-(1H-1,2,4-triazol-1-yl)quinolin-4-yl)ethyl)-5-(aminomethyl)-2-methylbenzamide] — 40-fold lower, 0.25 µM
- Cc1cc(COCc2cocn2)ccc1C(=O)NC1(c2cc(-c3cnn(C)c3)nc3ccccc23)CC1 [Example 344, 2-methyl-N-(1-(2-(1-methyl-1H-pyrazol-4-yl)quinolin-4-yl)cyclopropyl)-4-((oxazol-4-ylmethoxy)methyl)benzamide] — lower, < 0.001 µM
- Cc1ccccc1C(=O)NC(C)c1cc(NC2(C#N)CC2)nc2ccccc12 (stereo not shown) [Example 145, N-(1-{2-[(1-cyanocyclopropyl)amino]quinolin-4-yl}ethyl)-2-methylbenzamide] — 4-fold lower, 2.52 µM
- CC(=O)Nc1cc([C@@H](C)NC(=O)c2ccccc2C)c2ccccc2n1 [Example 40, (R)—N-(1-(2-acetamidoquinolin-4-yl)ethyl)-2-methylbenzamide] — 3.2-fold lower, 3.16 µM
- Cc1cc(C(C)OCc2nccn2C)ncc1C(=O)N[C@H](C)c1cc(-c2cnn(C)c2)nc2ccccc12 (stereo partly drawn) [Example 322, 4-methyl-6-(1-((1-methyl-1H-imidazol-2-yl)methoxy)ethyl)-N-((R)-1-(2-(1-methyl-1H-pyrazol-4-yl)quinolin-4-yl)ethyl)nicotinamide] — 1400-fold lower, 0.007 µM
- Cc1ccccc1C(=O)NC(C)c1cc(CC2CCOCC2)nc2ccccc12 (stereo in doubt) [Example 152, 2-methyl-N-[(1R)-1-{2-[(oxan-4-yl)methyl]quinolin-4-yl}ethyl]benzamide] — 16-fold lower, 0.623 µM
- Cc1ccccc1C(=O)NC(C)c1cc(-c2cnn3cccnc23)nc2ccccc12 (stereo not shown) [Example 131, 2-methyl-N-{1-[2-(pyrazolo [1,5-a]pyrimidin-3-yl)quinolin-4-yl]ethyl}benzamide] — 3.4-fold lower, 2.91 µM
- Cc1ccccc1C(=O)NC(C)c1cc(-c2cn[nH]c2)nc2ccccc12 (stereo not shown) [Example 101, 2-methyl-N-{1-[2-(1H-pyrazol-4-yl)quinolin-4-yl]ethyl}benzamide] — 51-fold lower, 0.198 µM
- Cc1ccccc1C(=O)NC(C)c1cc(NC2CCOC2)nc2ccccc12 (stereo not shown) [Example 142, 2-methyl-N-(1-{2-[(oxolan-3-yl)amino]quinolin-4-yl}ethyl)benzamide] — 11-fold lower, 0.9 µM
